The text below walks through data of patent US12265087B2, “Olfactory receptor as microglia marker and use thereof” (DAEGU GYEONGBUK INSTITUTE OF SCIENCE AND TECHNOLOGY, priority 2019, dated 2025).

The test system of assay [1] is microglia. Briefly: GFP intensity / morphology of microglia in CX3CR1 GFP/+ mice. Type of assay: in vivo, mouse. The note with it: 2-PF treated CX3CR1 GFP/+ mice. As to the method:
To analyze a morphological change in microglia activation, 9-week-old CX3CR1^GFP/+ mice were used. Two hours after an IP containing or not containing 2-PF was injected into two mice, brain sections were collected by cryosection. A 40-μm-thick brain tissue fragment was prepared by […], and a GFP signal of microglia was measured using a 40× magnification confocal microscope. A GFP-pixel signal of microglia was analyzed using Zeiss ZEN Software (Zeiss).

The next assay has as its system Olfr111. Briefly: Luciferase assay in Hana3A cells transfected with Olfr111. Type of assay: cell-based, mouse. Conditions: Hana3A cells.
Assay [2] has as its system primary microglia. Briefly: Boyden chamber chemotaxis of primary microglia. Type of assay: cell-based, mouse. The note with it: 100, 300 and 500 μM. As to the method: In this example, microglia or astrocytes were primarily extracted from the cerebral cortex of E18.5 mouse embryos (Tamashiro et al., 2012), and cultured as described in Example 1. More specifically, the mouse embryonic cortex was collected, stored in a cold supernatant (#14170-112; Thermo Fisher Scientific), and pretreated in a 0.25% trypsin solution (#15090-046; Thermo Fisher Scientific) at 37° C. for 20 minutes. Afterward, cells were plated in a minimum nutrient medium supplemented with 10% FBS (#SH30919.03; Hyclone), 2 mM L-glutamine (#25030-081; Thermo Fisher Scientific), 0.04% glucose (#G7021; Sigma Aldrich), and 1% penicillin/streptomycin (#15140-122; Thermo Fisher Scientific), and filtered through a […] strainer (#352340; Thermo Fisher Scientific). The microglia were plated at a density of 1.2×10^7 cells in a T75 flask coated with poly-D-lysine (#P7280; Sigma Aldrich). […] Purities of the collected microglia and astrocytes were evaluated by qRT-PCR assay and immunocytochemistry using a marker gene and proteins such as Iba-1 and Gfap.
Chemotaxis was measured using a multi-well Boyden chamber. […] The migrated cells were counted under a light microscope in five randomly selected fixed […] fields (200×) using a scored eyepiece. […]

In assay [3] the test system is microglia. Put plainly: Ex vivo phagocytosis of microglia in brain slices (time-lapse confocal imaging). Type of assay: cell-based, mouse. The note with it: brain slices of CX3CR1 GFP/+ mice. Here is the method: In this experiment, to examine the phagocytotic action of microglia, the brain of a 9-week-old male CX3CR1^GFP/+ mouse was sliced to a thickness of 150 μm using a vibratome (Leica VT1200), and stored in a ice-cooled artificial cerebrospinal fluid (aCSF: 120 mM NaCl, 25 mM NaHCO3, 1.25 mM NaH2PO4, 5 mM KCl, 1 mM CaCl2, 1 mM MgSO4, […], pH7.4). Afterwards, the sliced brain was incubated to remove cell debris. Oxygen-treated aCSF was pretreated in a perfusion chamber at 37° C. for 2 hours. Subsequently, before incubation, the sliced brain was incubated with 500 μl of aCSF containing 9.10×10^7 microspheres (360/407 […]; #17458; Polysciences), and covered with a customized nylon grid. Time lapse videos were recorded every minute for 92 minutes using a confocal microscope. The number of phagocytosing microglia was counted from the images.

The test system of assay [4] is primary microglia. Put plainly: cAMP ELISA in primary microglia. Type of assay: cell-based, mouse. The note with it: 2-PF 0, 100, 500 μM. As to the method: Primary microglia were seeded in 48-well plates (2×10^5 cells/well) and treated with 30 μM forskolin (#F3917, Sigma Aldrich) or 2-PF (10, 100, 500 μM) for 30 minutes. To confirm the effect of an inhibitor, 1 mM of S Q22536 (#17318-31-9; Calbiochem) was pretreated first for 30 minutes. The cells were lysed in 0.1 M of HCl with 1% Triton X 100 for 10 minutes, the lysate was centrifuged at 600×g for 2 minutes. The resulting supernatant was directly used for cAMP analysis with a cAMP ELISA kit (Enzo Life Science) according to the manufacturer's protocol. An optical density at 405 nm was measured using a VersaMax microplate reader (Molecular Devices).
(In general: ELISA stands for enzyme-linked immunosorbent assay.)

Entries after “also recorded” stand apart in the source; their conditions may differ.

Procedure for Olfr111: A Dual-Glo luciferase assay system (#E2940; Promega) was used for OR ligand screening. More specifically, Hana3A cells were seeded in white polystyrene 96-well plates (#353296; BD Biosciences) one day before transfection. pCRELuc (1 μg; #219076; Agilent Technologies), pRL-SV40 (1 μg; #E2231; Promega), RTP1S (1 μg), and OR (6 μg; or Mock) vectors were transfected for 24 hours in each plate. Analysis was performed using Lipofectamine 2000 (#11668-019; Thermo Fisher Scientific) according to the manufacturer's protocols. Transfected cells were stimulated at 37° C. for 4 hours with various concentrations of diluted odorants in a CD293 medium (#11913-019; Thermo Fisher Scientific). The activity of luciferase was normalized to that of Renilla luciferase. Luminescence was measured using a SpectraMax L microplate reader (Molecular Devices).

Consider `CCCCCc1ccco1` [2-PF, 2-pentylfuran], for which the “intensity of GFP expression of microglia” value with microglia [1] was “highly increased”. For the same compound, the “reactivity with Olfr111 (relative luciferase activity)” value in the assay on Olfr111 is listed as “selective ligands; also recorded: showed reactivity”. Moreover, the chemotaxis entry in the assay with primary microglia [2] is reported as “significantly increased in a concentration-dependent manner”. Further, in the assay on microglia [3], the “activity of phagocytosis of microglia ex vivo” value is given as “increased”. In the assay with primary microglia [4], the cAMP concentration result was “increased by 2-PF treatment in a concentration dependent manner”.
